What is called inhibition is the change of the read-out against control, counted positive when it falls. Low readings indicate little suppression, high ones strong suppression. Usually IC50 stands for the concentration needed to halve the response being measured.

Experiment [1] has as its target Mitogen-activated protein kinase 3 (Homo sapiens) (UniProt P27361). The experiment can be described thus: Inhibition of ERK1 (unknown origin) at 1 uM by Z'-Lyte assay relative to control.
Experiment [2] has as its target Mitogen-activated protein kinase 1 (Homo sapiens) (UniProt P28482). Kind of experiment: Inhibition of ERK2 (unknown origin) at 1 uM by Z'-Lyte assay relative to control.
Experiment [3] addresses Mitogen-activated protein kinase 7 (Homo sapiens) (UniProt Q13164). Kind of experiment: Inhibition of ERK5 (unknown origin) at 1 uM by Z'-Lyte assay relative to control.
The subject of another experiment is HL-60. Kind of experiment: Antiproliferative activity against human HL60 cells assessed as reduction in cell viability measured after 24 hrs. It is filed as functional, cell-based. To be noted: HL-60, 24 h.
In another experiment the test system is MKN-74. Kind of experiment: Antiproliferative activity against human MKN74 cells assessed as reduction in cell viability measured after 24 hrs. It is filed as functional, cell-based. To be noted: MKN-74, 24 h.
The next experiment concerns HeLa. Kind of experiment: Antiproliferative activity against human HeLa cells assessed as reduction in cell viability measured after 24 hrs. The class given is functional, cell-based.

Chain of Mitogen-activated protein kinase 1 (Homo sapiens) (P28482 whole entry): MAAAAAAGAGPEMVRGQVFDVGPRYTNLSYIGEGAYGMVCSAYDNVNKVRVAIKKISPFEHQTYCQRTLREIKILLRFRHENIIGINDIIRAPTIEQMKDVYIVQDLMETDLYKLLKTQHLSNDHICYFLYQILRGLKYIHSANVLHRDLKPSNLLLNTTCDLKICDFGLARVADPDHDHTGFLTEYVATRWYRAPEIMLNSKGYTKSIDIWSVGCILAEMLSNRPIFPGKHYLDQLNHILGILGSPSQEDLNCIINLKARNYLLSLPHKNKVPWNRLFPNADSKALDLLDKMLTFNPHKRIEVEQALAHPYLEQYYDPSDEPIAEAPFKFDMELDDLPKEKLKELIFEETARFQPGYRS
Chain of Mitogen-activated protein kinase 3 (Homo sapiens) (P27361 whole entry): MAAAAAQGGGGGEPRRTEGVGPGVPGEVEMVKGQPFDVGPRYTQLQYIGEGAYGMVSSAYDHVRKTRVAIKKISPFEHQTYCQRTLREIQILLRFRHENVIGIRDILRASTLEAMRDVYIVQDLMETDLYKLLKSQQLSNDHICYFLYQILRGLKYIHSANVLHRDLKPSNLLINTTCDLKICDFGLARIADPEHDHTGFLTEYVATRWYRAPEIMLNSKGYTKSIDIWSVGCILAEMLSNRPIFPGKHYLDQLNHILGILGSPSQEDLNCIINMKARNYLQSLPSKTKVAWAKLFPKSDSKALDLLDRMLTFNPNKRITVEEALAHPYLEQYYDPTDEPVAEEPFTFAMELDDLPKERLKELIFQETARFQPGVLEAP
Chain of Mitogen-activated protein kinase 7 (Homo sapiens) (Q13164 2-816 limits assumed): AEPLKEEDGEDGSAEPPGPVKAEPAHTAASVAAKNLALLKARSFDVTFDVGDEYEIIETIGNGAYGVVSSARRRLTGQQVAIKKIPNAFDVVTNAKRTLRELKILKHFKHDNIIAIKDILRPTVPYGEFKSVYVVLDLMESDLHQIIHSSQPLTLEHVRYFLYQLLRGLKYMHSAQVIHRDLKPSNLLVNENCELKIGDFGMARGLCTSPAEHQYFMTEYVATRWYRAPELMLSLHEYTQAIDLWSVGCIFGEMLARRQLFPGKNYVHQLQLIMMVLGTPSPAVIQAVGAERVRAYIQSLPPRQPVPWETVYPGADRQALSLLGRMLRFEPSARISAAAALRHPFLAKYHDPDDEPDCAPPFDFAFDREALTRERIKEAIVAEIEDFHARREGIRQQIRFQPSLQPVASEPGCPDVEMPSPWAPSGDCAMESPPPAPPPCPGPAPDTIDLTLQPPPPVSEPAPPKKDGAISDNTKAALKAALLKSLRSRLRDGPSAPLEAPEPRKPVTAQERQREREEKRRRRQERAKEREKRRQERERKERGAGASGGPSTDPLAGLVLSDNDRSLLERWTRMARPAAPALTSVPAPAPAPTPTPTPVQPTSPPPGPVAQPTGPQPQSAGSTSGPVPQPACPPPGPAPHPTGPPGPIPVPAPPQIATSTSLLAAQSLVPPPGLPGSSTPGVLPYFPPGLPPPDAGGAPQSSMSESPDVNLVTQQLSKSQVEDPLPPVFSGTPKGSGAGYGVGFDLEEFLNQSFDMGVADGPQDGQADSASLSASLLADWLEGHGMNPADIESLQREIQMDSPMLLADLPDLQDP

For the compound `NC(=O)c1c(NC(=O)c2ccccc2Cl)sc2c1CCN(C(=S)Nc1cc(C(F)(F)F)cc(C(F)(F)F)c1)C2`, the inhibition in experiment [1] worked out at 89.3%; in experiment [2], 88.8%; in experiment [3], 77.4%. The IC50 with HL-60 was determined as 6.5 µM; in the experiment on MKN-74, 15 µM; in the experiment on HeLa, 48.9 µM.
As for `Cc1ccccc1NC(=S)N1CCc2c(sc(NC(=O)c3ccccc3C(F)(F)F)c2C(N)=O)C1`, the results for the inhibition in experiment [1], in experiment [2] and in experiment [3] were 64.9%, 62.8% and 48.3%, respectively. For the same compound, the IC50 stood at 25.1 µM in the experiment with HL-60, 47.4 µM with MKN-74 and 47 µM with HeLa.
For the compound `NC(=O)c1c(NC(=O)c2ccccc2Cl)sc2c1CCN(C(=S)Nc1cccc3ccccc13)C2`, the inhibition in experiment [1] came out at 82.8%; in experiment [2], 81.3%; in experiment [3] it was 72.5%. The values for the IC50 in the experiment on HL-60, with MKN-74 and in the experiment with HeLa were 13.4 µM, 20.7 µM and 30.8 µM, respectively.
Consider `Cc1ccccc1NC(=S)N1CCc2c(sc(NC(=O)c3ccccc3Cl)c2C(N)=O)C1`, for which the figures for the inhibition in experiment [1], in experiment [2] and in experiment [3] were 68.4%, 72.8% and 59.3%, respectively. Further, the figures for the IC50 with HL-60, in the experiment on MKN-74 and in the experiment with HeLa were 22.6 µM, 11.7 µM and greater than 50 µM, respectively.
Turning to `COc1ccc(NC(=S)N2CCc3c(sc(NC(=O)c4ccccc4Cl)c3C(N)=O)C2)cc1`, the inhibition in experiment [1] amounted to 78.1%; in experiment [2], 68.7%; in experiment [3], 55.7%. Moreover, the IC50 worked out at 15.7 µM with HL-60, 19.6 µM with MKN-74 and 36.4 µM in the experiment with HeLa.
Consider `Cc1ccccc1C(=O)Nc1sc2c(c1C(N)=O)CCN(C(=S)Nc1ccccc1C(F)(F)F)C2`, for which the inhibition came out at 72% in experiment [1], 76.9% in experiment [2] and 60.1% in experiment [3]. Further, the IC50 with HL-60 was 23.2 µM; in the experiment with MKN-74, 17.4 µM; in the experiment with HeLa it was greater than 50 µM.
For the compound `NC(=O)c1c(NC(=O)c2ccccc2Cl)sc2c1CCN(C(=S)Nc1ccccc1I)C2`, the results for the inhibition in experiment [1], in experiment [2] and in experiment [3] were 88%, 87.3% and 81%, respectively. In addition, the IC50 was 4.43 µM with HL-60, 2.63 µM in the experiment with MKN-74 and 28.9 µM in the experiment on HeLa.
In the case of `NC(=O)c1c(NC(=O)c2ccc(C(F)(F)F)cc2)sc2c1CCN(Cc1ccccc1F)C2`, the inhibition in experiment [1] was 72.2%; in experiment [2], 76.8%; in experiment [3] it was 56.8%. Moreover, the IC50 in the experiment with HL-60 was greater than 50 µM; in the experiment with MKN-74, 26.9 µM; with HeLa, greater than 50 µM.
In the case of `NC(=O)c1c(NC(=O)c2ccccc2Cl)sc2c1CCN(Cc1ccccc1F)C2`, the inhibition in experiment [1] was determined as 68.3%; in experiment [2] it was 71.6%; in experiment [3], 37.9%. Besides, the IC50 in the experiment with HL-60 was 21.8 µM; in the experiment on MKN-74, 12.9 µM; with HeLa it was greater than 50 µM.
Consider `N#Cc1ccccc1CN1CCc2c(sc(NC(=O)c3ccccc3Cl)c2C(N)=O)C1`, for which the inhibition was 55.8% in experiment [1], 42.1% in experiment [2] and 44.3% in experiment [3]. The IC50 with HL-60 is 10.4 µM; in the experiment with MKN-74 it was 9.5 µM; in the experiment with HeLa, greater than 50 µM.
Take `NC(=O)c1c(NC(=O)c2ccccc2F)sc2c1CCN(C(=S)Nc1ccccc1Cl)C2`: the inhibition amounted to 62.4% in experiment [1], 68.6% in experiment [2] and 65.2% in experiment [3]. The IC50 in the experiment on HL-60 came to 12.5 µM; in the experiment with MKN-74 it was 11.1 µM; with HeLa, 19.4 µM.
`NC(=O)c1c(NC(=O)c2ccccc2I)sc2c1CCN(C(=S)Nc1ccccc1C(F)(F)F)C2`: the inhibition in experiment [1] is 77.5%; in experiment [2] it was 80.7%; in experiment [3], 64.8%. Besides, the results for the IC50 in the experiment with HL-60, with MKN-74 and with HeLa were 19.7 µM, 14.2 µM and 49.2 µM, respectively.
Consider `Cc1ccccc1CN1CCc2c(sc(NC(=O)c3ccccc3Cl)c2C(N)=O)C1`, for which the results for the inhibition in experiment [1], in experiment [2] and in experiment [3] were 60.6%, 53.4% and 55.3%, respectively. Moreover, the IC50 in the experiment on HL-60, in the experiment with MKN-74 and in the experiment on HeLa was greater than 50 µM each time.
Consider `NC(=O)c1c(NC(=O)c2ccccc2I)sc2c1CCN(C(=S)Nc1ccccc1Br)C2`, for which the inhibition in experiment [1] was 82%; in experiment [2] it was 80%; in experiment [3], 85.5%. Also, the values for the IC50 in the experiment with HL-60, in the experiment on MKN-74 and in the experiment with HeLa were 18.9 µM, 22.4 µM and greater than 50 µM, respectively.
Consider `NC(=O)c1c(NC(=O)c2ccccc2Cl)sc2c1CCN(C(=S)Nc1cccnc1)C2`, for which the inhibition in experiment [1] worked out at 41.9%; in experiment [2] it was 45.4%; in experiment [3] it was 34.9%. The IC50 is 33.9 µM in the experiment with HL-60, 38.6 µM with MKN-74 and greater than 50 µM in the experiment on HeLa.
Regarding `NC(=O)c1c(NC(=O)c2ccccc2)sc2c1CCN(C(=S)Nc1ccccc1Cl)C2`, the inhibition in experiment [1] came out at 73.8%; in experiment [2] it was 77.5%; in experiment [3], 58.9%. The IC50 was 13.8 µM with HL-60, 11.8 µM with MKN-74 and greater than 50 µM in the experiment on HeLa.
Take `COc1ccccc1NC(=S)N1CCc2c(sc(NC(=O)c3ccccc3I)c2C(N)=O)C1`: the inhibition in experiment [1] came to 56.1%; in experiment [2], 59.6%; in experiment [3], 42.8%. The IC50 was greater than 50 µM in the experiment on HL-60, 41.8 µM in the experiment with MKN-74 and greater than 50 µM in the experiment with HeLa.
Turning to `NC(=O)c1c(NC(=O)c2ccccc2Cl)sc2c1CCN(C(=O)Nc1ccccc1Cl)C2`, the inhibition in experiment [1] was 89.2%; in experiment [2], 88.4%; in experiment [3], 89.9%. Also, the IC50 in the experiment with HL-60 worked out at 12.5 µM; in the experiment on MKN-74, 16.3 µM; with HeLa, 45.4 µM.
For `NC(=O)c1c(NC(=O)c2ccccc2Cl)sc2c1CCN(C(=S)Nc1ccc(C(F)(F)F)cc1)C2`, the inhibition is 80.5% in experiment [1], 54.4% in experiment [2] and 57.4% in experiment [3]. Also, the figures for the IC50 with HL-60, in the experiment with MKN-74 and with HeLa were 7.59 µM, 7.09 µM and greater than 50 µM, respectively.
As for `Cc1ccccc1C(=O)Nc1sc2c(c1C(N)=O)CCN(C(=S)Nc1ccccc1Br)C2`, the results for the inhibition in experiment [1], in experiment [2] and in experiment [3] were 64.7%, 65.2% and 54.9%, respectively. In addition, the values for the IC50 in the experiment with HL-60, in the experiment with MKN-74 and with HeLa were 45.2 µM, greater than 50 µM and greater than 50 µM, respectively.
On to `NC(=O)c1c(NC(=O)c2ccccc2Cl)sc2c1CCN(C(=S)Nc1c(Cl)cccc1Cl)C2`, for which the inhibition in experiment [1] came to 90.7%; in experiment [2], 90.5%; in experiment [3] it was 88%. Moreover, the IC50 came out at 3.95 µM in the experiment with HL-60, 4.02 µM in the experiment on MKN-74 and 26.5 µM in the experiment with HeLa.
Turning to `NC(=O)c1c(NC(=O)c2ccccc2C(F)(F)F)sc2c1CCN(C(=S)Nc1ccccc1Br)C2`, the inhibition in experiment [1] is 82.5%; in experiment [2] it was 85.5%; in experiment [3] it was 73.3%. Also, the figures for the IC50 in the experiment on HL-60, with MKN-74 and in the experiment on HeLa were 25.5 µM, 23.9 µM and greater than 50 µM, respectively.
Turning to `Cc1ccc(C(=O)Nc2sc3c(c2C(N)=O)CCN(Cc2c(Cl)cccc2Cl)C3)cc1`, the values for the inhibition in experiment [1], in experiment [2] and in experiment [3] were 42.8%, 45.4% and 46%, respectively. Also, the IC50 with HL-60 was found to be 10 µM; in the experiment with MKN-74, 12.3 µM; with HeLa, 47.4 µM.
Take `NC(=O)c1c(NC(=O)c2ccc(C(F)(F)F)cc2)sc2c1CCN(Cc1c(Cl)cccc1Cl)C2`: the figures for the inhibition in experiment [1], in experiment [2] and in experiment [3] were 37.3%, 35.6% and 38.7%, respectively. For the same compound, the IC50 in the experiment on HL-60 was 10.6 µM; in the experiment on MKN-74 it was 8.53 µM; in the experiment with HeLa, greater than 50 µM.
Turning to `NC(=O)c1c(NC(=O)c2ccccc2Cl)sc2c1CCN(C(=S)Nc1ccccc1F)C2`, the inhibition in experiment [1] came to 88.4%; in experiment [2] it was 82.8%; in experiment [3], 70.7%. The IC50 in the experiment with HL-60 amounted to 4.97 µM; in the experiment with MKN-74 it was 12.6 µM; in the experiment on HeLa, 28.7 µM.
Consider `NC(=O)c1c(NC(=O)c2ccccc2Cl)sc2c1CCN(Cc1c(Cl)cccc1Cl)C2`, for which the inhibition in experiment [1] stood at 57.8%; in experiment [2], 78.1%; in experiment [3] it was 61.9%. For the same compound, the IC50 was determined as 4.85 µM in the experiment with HL-60, 4.74 µM with MKN-74 and 28.8 µM in the experiment on HeLa.
As for `NC(=O)c1c(NC(=O)c2ccc(C(F)(F)F)cc2)sc2c1CCN(C(=S)Nc1cc(C(F)(F)F)cc(C(F)(F)F)c1)C2`, the figures for the inhibition in experiment [1], in experiment [2] and in experiment [3] were 79.4%, 66% and 54.2%, respectively. In addition, the IC50 in the experiment with HL-60 came to 16.3 µM; in the experiment with MKN-74, 13.8 µM; in the experiment with HeLa, 49 µM.
Take `NC(=O)c1c(NC(=O)c2ccccc2Br)sc2c1CCN(C(=S)Nc1ccccc1Cl)C2`: the inhibition amounted to 87.7% in experiment [1], 89.7% in experiment [2] and 80.5% in experiment [3]. The IC50 with HL-60 was 14.6 µM; with MKN-74, 12.9 µM; with HeLa, 46.9 µM.
Consider `NC(=O)c1c(NC(=O)c2ccccc2Cl)sc2c1CCN(Cc1ccc([N+](=O)[O-])cc1)C2`, for which the values for the inhibition in experiment [1], in experiment [2] and in experiment [3] were 66.2%, 63.1% and 65%, respectively. Besides, the IC50 with HL-60 was determined as 11.4 µM; with MKN-74, 31.5 µM; with HeLa it was 46.1 µM.
As for `NC(=O)c1c(NC(=O)c2cccc([N+](=O)[O-])c2)sc2c1CCN(Cc1ccc(Cl)cc1Cl)C2`, the inhibition came to 67.2% in experiment [1], 65.3% in experiment [2] and 77.9% in experiment [3]. Further, the IC50 amounted to 19.8 µM with HL-60, 16.5 µM in the experiment on MKN-74 and 33 µM with HeLa.

These data come from ChEMBL document CHEMBL4342467, “Discovery of a Novel Dual-Target Inhibitor of ERK1 and ERK5 That Induces Regulated Cell Death to Overcome Compensatory Mechanism in Specific Tumor Types” (J Med Chem, 2020).
